From ChEMBL document CHEMBL1154148, “Ascomycones A-C, heptaketide metabolites from an unidentified ascomycete” (J Nat Prod, 2008)
Values after ≈ are worked out from the molar mass of the structure shown. Active and inactive are the calls of the source. The rule behind the calls is not given here.

How the values were obtained:
Caenorhabditis elegans = assay: Nematicidal activity against Caenorhabditis elegans at 100 ug/ml; type: functional, organism-based
Botrytis cinerea = assay: Antimicrobial activity against Botrytis cinerea assessed as inhibition of conidial germination after 16 hrs by inverted microscopic analysis; type: functional
Penicillium chrysogenum = assay: Antimicrobial activity against Penicillium notatum assessed as inhibition of conidial germination after 16 hrs by inverted microscopic analysis; type: functional
Paecilomyces variotii = assay: Antimicrobial activity against Paecilomyces variotii assessed as inhibition of conidial germination after 16 hrs by inverted microscopic analysis; type: functional
Rhizomucor miehei = assay: Antimicrobial activity against Mucor miehei assessed as inhibition of conidial germination after 16 hrs by inverted microscopic analysis; type: functional
Brevibacillus brevis = assay: Antimicrobial activity against Bacillus brevis at 50 ug/disk by agar diffusion assay; type: functional; settings: read-out: IZ
Bacillus subtilis = assay: Antimicrobial activity against Bacillus subtilis at 50 ug/disk by agar diffusion assay; type: functional; settings: read-out: IZ
Eremothecium coryli = assay: Antimicrobial activity against Nematospora coryli at 50 ug/disk by agar diffusion assay; type: functional; settings: read-out: IZ
Escherichia coli = assay: Antimicrobial activity against Escherichia coli K-12 by serial dilution test; type: functional
[1] = test system: Enterobacter cloacae subsp. dissolvens; assay: Antimicrobial activity against Enterobacter dissolvens by serial dilution test; type: functional
Proteus vulgaris = assay: Antimicrobial activity against Proteus vulgaris by serial dilution test; type: functional
[2] = Cytotoxicity against human HeLaS3 cells assessed as reduction in cell proliferation; type: functional, cell-based; settings: HeLa S3
Lepidium sativum [3] = assay: […] against Lepidium sativum assessed as seed germination up to 300 ug/ml; type: functional, organism-based
Setaria italica [4] = assay: […] against Setaria italica assessed as seed germination up to 300 ug/ml; type: functional, organism-based
Meloidogyne incognita = assay: Nematicidal activity against Meloidogyne incognita at 100 ug/ml; type: functional, organism-based
Lepidium sativum [5] = assay: […] against Lepidium sativum assessed as inhibition of seedling growth up to 300 ug/ml; type: functional, organism-based
Setaria italica [6] = assay: […] against Setaria italica assessed as inhibition of seedling growth up to 300 ug/ml; type: functional, organism-based
Pyricularia grisea = assay: Antimicrobial activity against Magnaporthe grisea assessed as inhibition of conidial germination after 16 hrs by inverted microscopic analysis; type: functional
Fusarium graminearum = assay: Antimicrobial activity against Fusarium graminearum assessed as inhibition of conidial germination after 16 hrs by inverted microscopic analysis; type: functional
Phytophthora infestans = assay: Antimicrobial activity against Phytophthora infestans assessed as inhibition of conidial germination after 16 hrs by inverted microscopic analysis; type: functional

Row | Structure (SMILES) | Activity (Caenorhabditis elegans) | IC100 (Botrytis cinerea) | IC100 (Penicillium chrysogenum) | IC100 (Paecilomyces variotii) | IC100 (Rhizomucor miehei) | zone of inhibition at 50 µg/disc (Brevibacillus brevis) | zone of inhibition at 50 µg/disc (Bacillus subtilis) | zone of inhibition at 50 µg/disc (Eremothecium coryli) | MIC (Escherichia coli) | MIC [1] | MIC (Proteus vulgaris) | IC50 [2] | Activity (Lepidium sativum [3]) | Activity (Setaria italica [4]) | Activity (Meloidogyne incognita) | Activity (Lepidium sativum [5]) | Activity (Setaria italica [6]) | IC100 (Pyricularia grisea) | IC100 (Fusarium graminearum) | IC100 (Phytophthora infestans)
1 | COc1cc(O)c2c(c1)C(=O)C1=C(C2=O)C(OC)OC(C)=C1 (configuration not stated) [ASCOMYCONE A] | inactive | >50 µg/mL | >50 µg/mL | >50 µg/mL | 50 µg/mL | 14 mm | 11 mm | 0 mm | > 50 µg/mL | > 50 µg/mL | > 50 µg/mL | 5 µg/mL (≈ 16.5 µM) | inactive | inactive | inactive | inactive | inactive | – | – | –
2 | COc1cc(O)c2c(c1)C(=O)C1=C(C2=O)C(O)OC(C)=C1 (configuration not stated) [ASCOMYCONE B] | inactive | 5 µg/mL | 10 µg/mL | >50 µg/mL | 10 µg/mL | 11 mm | 10 mm | 13 mm | > 50 µg/mL | > 50 µg/mL | > 50 µg/mL | 5 µg/mL (≈ 17.3 µM) | inactive | inactive | inactive | inactive | inactive | 1 µg/mL | 0.5 µg/mL | 5 µg/mL
3 | CO/C=C1/C(=O)c2c(O)cc(OC)cc2C(=O)C1(O)CC(C)=O (configuration not stated) [ASCOMYCONE C] | inactive | 50 µg/mL | 15 µg/mL | >50 µg/mL | >50 µg/mL | 7 mm | 0 mm | 11 mm | > 50 µg/mL | > 50 µg/mL | > 50 µg/mL | 50 µg/mL (≈ 156 µM) | inactive | inactive | inactive | inactive | inactive | 2.5 µg/mL | 2.5 µg/mL | 5 µg/mL
